The values below come from PMC5039532, “Design and Synthesis of Analogues of Marine Natural Product Galaxamide, an N-methylated Cyclic Pentapeptide, as Potential Anti-Tumor Agent in Vitro” (Marine Drugs, 2016).

In brackets after ≈: the same amount, converted by molar mass. Like-named read-outs stand apart in the source and are kept apart here.

The subject of data set [1] is human hepatocellular carcinoma HepG2. It counts as cell-based. The settings on record: 48 h. Here is the method: (§1) Lung cancer A549, drug-resistant lung cancer A549-DPP, human hepatocellular carcinoma HepG2 and hepatocellular carcinoma SMMC-7721 cells obtained from the China cell bank of the Institute of Biochemistry and were cultured in DMEM culture medium (DMEM, Corning, NY, USA) containing 10% fetal bovine serum (FBS, Hyclone, Logan, UT, USA), 1% penicillin-streptomycin and an antifungal agent in a 5% CO2 humidified atmosphere at 37 °C. The culture medium was replaced once in a day. Trypsin digestion method was adopted for cell propagation. Upon reaching 80%–90% confluence, the cells were rinsed twice with PBS. A certain amount of 0.25% trypsin digestion solution was then added and maintained for 3–5 min at 37 °C. Afterward, DMEM culture medium containing 10% fetal bovine serum was added to terminate the digestion. The cells were then blown well to form single cell suspensions.
(§2) The cell viability was determined by measuring the ability of cells to transform MTT (Genview, Houston, TX, USA) to a purple formazan dye. The cells were seeded in 96-well tissue culture plates at 2.5 × 10^3 cells/well for 24 h. The cells were then incubated with galaxamide and its analogues for 48 h. After incubation, 20 μL/well of MTT solution (5 mg/mL phosphate buffered saline) were added and incubated for 5 h. The medium was aspirated and replaced with 100 μL/well of DMSO to dissolve the formazan salt. The color intensity of the formazan solution, which reflects the cell growth condition, was measured at 570 nm using a microplate spectrophotometer (SpectroAma™ 250, Winooski, VT, USA).

Data set [2] has as its system drug-resistant lung cancer cell line A549/DPP. It counts as cell-based, human. The settings on record: 48 h. On the procedure: as §1, §2
The test system of data set [3] is Lung cancer cell line A549. The data set is classed as cell-based, human. The settings on record: 48 h. On the procedure: as §1, §2
Data set [4] has as its system hepatocellular carcinoma SMMC-7721 cells. The data set is classed as cell-based, human. Conditions: for IC50 Value SMMC-7721: 48 h. Here is the method:
as §1, §2

For data set [5] the following is noted: amide bond, 15-membered ring, PyBOP/DIEA, DCM, 0.7 mM, 25.0 °C.
Where [6] appears, read: ratio of IC50 values, MTT assay.

On to `CC(C)C[C@H]1NC(=O)[C@H](Cc2ccccc2)NC(=O)[C@H](CC(C)C)N(C)C(=O)[C@@H](CC(C)C)NC(=O)[C@@H](CC(C)C)NC1=O` [Compound 21, cyclo(Phe-D-Leu-D-Leu-D-Leu-N-Me-Leu)], for which the “IC50 Value HepG2” value in data set [1] worked out at 15.3 µg/mL (≈ 24.9 µM). Moreover, the “IC50 Value A549-DPP” value in data set [2] was 18.6 µg/mL (≈ 30.3 µM). Moreover, the “IC50 Value A549” value in data set [3] amounted to 6.47 µg/mL (≈ 10.5 µM). Moreover, in data set [4], the “IC50 Value SMMC-7721” value came to 8.21 µg/mL (≈ 13.4 µM).

Consider `CC(C)C[C@H]1NC(=O)[C@@H](Cc2ccccc2)NC(=O)[C@H](CC(C)C)N(C)C(=O)[C@@H](CC(C)C)NC(=O)[C@H](CC(C)C)N(C)C1=O` [Compound 5, cyclo(D-Phe-D-Leu-N-Me-Leu-D-Leu-N-Me-Leu)], for which, in data set [1], the “IC50 Value HepG2” value came to 5.23 µg/mL (≈ 8.33 µM). Moreover, in data set [2], the “IC50 Value A549-DPP” value worked out at 23.61 µg/mL (≈ 37.6 µM). Moreover, the “IC50 Value A549” value in data set [3] came to 6.89 µg/mL (≈ 11 µM). Further, the “IC50 Value SMMC-7721” value in data set [4] came to 2.74 µg/mL (≈ 4.36 µM).

For the compound `CC(C)C[C@@H]1NC(=O)[C@@H](Cc2ccccc2)NC(=O)[C@@H](CC(C)C)N(C)C(=O)[C@@H](CC(C)C)NC(=O)[C@@H](CC(C)C)NC1=O` [Compound 25, cyclo(D-Phe-Leu-D-Leu-D-Leu-D-N-Me-Leu)], the “IC50 Value HepG2” value in data set [1] came out at 22.88 µg/mL (≈ 37.3 µM). In addition, the “IC50 Value A549-DPP” value in data set [2] amounted to 20.43 µg/mL (≈ 33.3 µM). Further, in data set [3], the “IC50 Value A549” value was 5.18 µg/mL (≈ 8.44 µM). Besides, the “IC50 Value SMMC-7721” value in data set [4] is 6.85 µg/mL (≈ 11.2 µM).

As to `CC(C)C[C@H]1NC(=O)[C@@H](CC(C)C)NC(=O)[C@H](CC(C)C)N(C)C(=O)[C@@H](CC(C)C)NC(=O)[C@H](Cc2ccccc2)NC1=O` [Compound 1, cyclo(Phe-D-Leu-N-Me-Leu-D-Leu-D-Leu)], in data set [1], the “IC50 Value HepG2” value is 12.15 µg/mL (≈ 19.8 µM). In addition, in data set [2], the “IC50 Value A549-DPP” value worked out at 27.2 µg/mL (≈ 44.3 µM). Besides, the “IC50 Value A549” value in data set [3] is 8.74 µg/mL (≈ 14.2 µM). Also, the “IC50 Value SMMC-7721” value in data set [4] stood at 1.25 µg/mL (≈ 2.04 µM). Besides, in data set [4] (setting [6]), the “anti-tumor activity towards SMMC-7721, fold higher than galaxamide” value is 9 fold and the “anti-tumor activity towards SMMC-7721, fold higher than reference DPP (cisplatin)” value came to 10 fold.

Consider `CC(C)C[C@@H]1NC(=O)[C@H](Cc2ccccc2)NC(=O)[C@@H](CC(C)C)NC(=O)[C@@H](CC(C)C)NC(=O)[C@@H](CC(C)C)N(C)C1=O` [Compound 3, cyclo(Phe-Leu-D-N-Me-Leu-D-Leu-D-Leu)], for which, in data set [1], the “IC50 Value HepG2” value was found to be 18.82 µg/mL (≈ 30.7 µM). Further, the “IC50 Value A549-DPP” value in data set [2] was found to be 11.41 µg/mL (≈ 18.6 µM). The “IC50 Value A549” value in data set [3] was 5.17 µg/mL (≈ 8.42 µM). Also, the “IC50 Value SMMC-7721” value in data set [4] was 2.77 µg/mL (≈ 4.51 µM).

Take `CC(C)C[C@H]1NC(=O)[C@@H](CC(C)C)NC(=O)[C@H](CC(C)C)N(C)C(=O)[C@@H](CC(C)C)NC(=O)[C@H](Cc2ccccc2)NC1=O` [cyclo(Phe-D-Leu-N-Me-Leu-D-Leu-D-Leu)]: the ring closure, yield after HPLC in data set [5] (from H-Phe-dLeu-MeLeu-dLeu-dLeu-OH?) worked out at 57.3%.

For `CC(C)C[C@@H]1NC(=O)[C@@H](Cc2ccccc2)NC(=O)[C@@H](CC(C)C)NC(=O)[C@@H](CC(C)C)NC(=O)[C@H](CC(C)C)N(C)C1=O` [Compound 2, cyclo(D-Phe-Leu-N-Me-Leu-D-Leu-D-Leu)], the “IC50 Value HepG2” value in data set [1] stood at 7.76 µg/mL (≈ 12.6 µM). Moreover, in data set [2], the “IC50 Value A549-DPP” value is 15.01 µg/mL (≈ 24.5 µM). Further, in data set [3], the “IC50 Value A549” value was determined as 5.27 µg/mL (≈ 8.59 µM). Also, the “IC50 Value SMMC-7721” value in data set [4] worked out at 5.48 µg/mL (≈ 8.93 µM).

Regarding `CC(C)C[C@@H]1NC(=O)[C@H](Cc2ccccc2)NC(=O)[C@H](CC(C)C)N(C)C(=O)[C@@H](CC(C)C)NC(=O)[C@H](CC(C)C)NC1=O` [Compound 20, cyclo(Phe-Leu-Leu-D-Leu-N-Me-Leu)], the “IC50 Value HepG2” value in data set [1] was 9.68 µg/mL (≈ 15.8 µM). For the same compound, in data set [2], the “IC50 Value A549-DPP” value is 16.15 µg/mL (≈ 26.3 µM). For the same compound, the “IC50 Value A549” value in data set [3] was 7.41 µg/mL (≈ 12.1 µM). Also, the “IC50 Value SMMC-7721” value in data set [4] was 3.35 µg/mL (≈ 5.46 µM).

With `CC(C)C[C@@H]1NC(=O)[C@H](Cc2ccccc2)NC(=O)[C@H](CC(C)C)N(C)C(=O)[C@@H](CC(C)C)NC(=O)[C@H](CC(C)C)NC1=O` [cyclo(Phe-Leu-Leu-D-Leu-N-Me-Leu)], in data set [5] (from H-Phe-Leu-Leu-dLeu-MeLeu-OH?), the ring closure, yield after HPLC is 46.1%.

Turning to `CC(C)C[C@@H]1NC(=O)[C@@H](CC(C)C)N(C)C(=O)[C@H](CC(C)C)NC(=O)[C@@H](Cc2ccccc2)NC(=O)[C@@H](CC(C)C)NC1=O` [Compound 4, cyclo(D-Phe-Leu-D-N-Me-Leu-Leu-D-Leu)], in data set [1], the “IC50 Value HepG2” value worked out at 16.58 µg/mL (≈ 27 µM). Besides, the “IC50 Value A549-DPP” value in data set [2] amounted to 19.71 µg/mL (≈ 32.1 µM). For the same compound, the “IC50 Value A549” value in data set [3] was 8.89 µg/mL (≈ 14.5 µM). Moreover, in data set [4], the “IC50 Value SMMC-7721” value amounted to 1.53 µg/mL (≈ 2.49 µM).

In data set [5] (from H-dPhe-dLeu-MeLeu-dLeu-MeLeu-OH?), `CC(C)C[C@H]1NC(=O)[C@@H](Cc2ccccc2)NC(=O)[C@H](CC(C)C)N(C)C(=O)[C@@H](CC(C)C)NC(=O)[C@H](CC(C)C)N(C)C1=O` [cyclo(D-Phe-D-Leu-N-Me-Leu-D-Leu-N-Me-Leu)] registered a ring closure, yield after HPLC of 53.9%.

In the case of `CC(C)C[C@@H]1NC(=O)[C@@H](CC(C)C)N(C)C(=O)[C@H](CC(C)C)NC(=O)[C@@H](Cc2ccccc2)NC(=O)[C@@H](CC(C)C)NC1=O` [cyclo(D-Phe-Leu-D-N-Me-Leu-Leu-D-Leu)], in data set [5] (from H-dPhe-Leu-dMeLeu-Leu-dLeu-OH?), the ring closure, yield after HPLC was found to be 53.8%.

Consider `CC(C)C[C@@H]1NC(=O)[C@@H](Cc2ccccc2)NC(=O)[C@@H](CC(C)C)N(C)C(=O)[C@@H](CC(C)C)NC(=O)[C@@H](CC(C)C)NC1=O` [cyclo(D-Phe-Leu-D-Leu-D-Leu-D-N-Me-Leu)], for which, in data set [5] (from H-dPhe-Leu-dLeu-dLeu-dMeLeu-OH?), the ring closure, yield after HPLC stood at 50%.

Compound `CC(C)C[C@@H]1NC(=O)[C@H](Cc2ccccc2)NC(=O)[C@@H](CC(C)C)NC(=O)[C@@H](CC(C)C)NC(=O)[C@@H](CC(C)C)N(C)C1=O` [cyclo(Phe-Leu-D-N-Me-Leu-D-Leu-D-Leu)] gave a ring closure, yield after HPLC in data set [5] (from H-Phe-Leu-dMeLeu-dLeu-dLeu-OH?) of 51.7%.

Consider `CC(C)C[C@@H]1NC(=O)[C@H](CC(C)C)NC(=O)[C@@H](Cc2ccccc2)NC(=O)[C@H](CC(C)C)N(C)C(=O)[C@@H](CC(C)C)NC1=O` [cyclo(D-Phe-Leu-Leu-D-Leu-N-Me-Leu)], for which, in data set [5] (from H-dPhe-Leu-Leu-dLeu-MeLeu-OH?), the ring closure, yield after HPLC was determined as 65.4%.

As to `CC(C)C[C@@H]1NC(=O)[C@H](Cc2ccccc2)NC(=O)[C@@H](CC(C)C)N(C)C(=O)[C@H](CC(C)C)NC(=O)[C@H](CC(C)C)NC1=O` [cyclo(Phe-Leu-Leu-Leu-D-N-Me-Leu)], the ring closure, yield after HPLC in data set [5] (from H-Phe-Leu-Leu-Leu-dMeLeu-OH?) amounted to 66.4%.

In data set [5] (from H-dPhe-MeLeu-Leu-Leu-dMeLeu-OH?), `CC(C)C[C@@H]1NC(=O)[C@H](CC(C)C)N(C)C(=O)[C@@H](Cc2ccccc2)NC(=O)[C@@H](CC(C)C)N(C)C(=O)[C@H](CC(C)C)NC1=O` [cyclo(D-Phe-N-Me-Leu-Leu-Leu-D-N-Me-Leu)] displayed a ring closure, yield after HPLC of 45.1%.

Compound `CC(C)C[C@H]1NC(=O)[C@H](Cc2ccccc2)NC(=O)[C@H](CC(C)C)N(C)C(=O)[C@@H](CC(C)C)NC(=O)[C@@H](CC(C)C)NC1=O` [cyclo(Phe-D-Leu-D-Leu-D-Leu-N-Me-Leu)] displayed a ring closure, yield after HPLC in data set [5] (from H-Phe-dLeu-dLeu-dLeu-MeLeu-OH?) of 55.1%.

`CC(C)C[C@@H]1NC(=O)[C@@H](Cc2ccccc2)NC(=O)[C@H](CC(C)C)N(C)C(=O)[C@H](CC(C)C)NC(=O)[C@@H](CC(C)C)NC1=O` [cyclo(D-Phe-Leu-D-Leu-Leu-N-Me-Leu)] showed a ring closure, yield after HPLC in data set [5] (from H-dPhe-Leu-dLeu-Leu-MeLeu-OH?) of 48.5%.

For the compound `CC(C)C[C@@H]1NC(=O)[C@@H](Cc2ccccc2)NC(=O)[C@@H](CC(C)C)NC(=O)[C@@H](CC(C)C)NC(=O)[C@H](CC(C)C)N(C)C1=O` [cyclo(D-Phe-Leu-N-Me-Leu-D-Leu-D-Leu)], the ring closure, yield after HPLC in data set [5] (from H-dPhe-Leu-MeLeu-dLeu-dLeu-OH?) was 61.5%.

As for `CC(C)C[C@@H]1NC(=O)[C@H](CC(C)C)N(C)C(=O)[C@H](CC(C)C)NC(=O)[C@@H](CC(C)C)N(C)C(=O)[C@@H](Cc2ccccc2)NC1=O` [cyclo(D-Phe-D-N-Me-Leu-Leu-N-Me-Leu-Leu)], the ring closure, yield after HPLC in data set [5] (from H-dPhe-dMeLeu-Leu-MeLeu-Leu-OH?) was 45.5%.
